Numbering of substitutions follows the chain as printed.
Assays:
Assay type in all cases: cell-based
[1] = target: T1, TPα^S340A (Homo sapiens, UniProt P21731, S340A); assay: Intracellular calcium mobilization, HEK.TPα^S340A cells
T1 construct: expressed in transfected cells
T1 sequence (P21731 1-343 S340A): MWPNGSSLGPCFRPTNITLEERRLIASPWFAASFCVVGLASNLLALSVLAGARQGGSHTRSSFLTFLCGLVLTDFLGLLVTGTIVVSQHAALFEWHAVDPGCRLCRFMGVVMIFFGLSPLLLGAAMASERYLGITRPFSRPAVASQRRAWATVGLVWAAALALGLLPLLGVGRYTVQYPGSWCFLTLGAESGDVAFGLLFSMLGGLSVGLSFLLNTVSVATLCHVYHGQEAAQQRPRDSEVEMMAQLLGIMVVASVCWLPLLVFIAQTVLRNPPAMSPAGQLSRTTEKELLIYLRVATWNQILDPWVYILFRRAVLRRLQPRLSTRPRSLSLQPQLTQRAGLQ
Experimental: (§1) Measurement of intracellular calcium mobilization ([Ca^2+]i) in FURA2/AM preloaded HEK 293 cell lines (2 × 10^6 cells/dish), each transiently co-transfected with pADVA (10 μg), and pCMV:Gαq (25 μg), was carried out as previously described. To investigate the effect of GRK2/βARK1 on TP-mediated [Ca^2+]i mobilization, HEK.TPα or HEK.TPβ cells (2 × 10^6 cells/dish) were co-transfected with pADVA (10 μg), pCMV:Gαq (25 μg) along with pRK5:βARK1^495–689 (25 μg), encoding a dominant negative form of GRK2/βARK1[39]. […] For each measurement of [Ca^2+]i mobilization, aliquots of cells were diluted to 0.825 × 10^6 cells/ml in HBSSHB, 1 mM CaCl2 and FURA2 fluorescence was recorded (2 ml aliquots of cells) at 37^ °C with gentle stirring with a Perkin Elmer-Cetus LS50-B spectrofluorometer at excitation wavelengths of 340 nm and 380 nm and emission wavelength of 510 nm, respectively.
(§2) Cells were stimulated with the TP agonist U46619 (1 μM) and changes in [Ca^2+]i mobilization were monitored as a function of time. […]
(§3) The vehicle had no effect on U46619-mediated [Ca^2+]i mobilization. Calibration of the signal was performed in each sample by adding 0.2% Triton X-100 to obtain the maximal fluorescence ratio (Rmax) and then 1 mM EGTA to obtain the minimal fluorescence ratio (Rmin). […]

[2] = target: T2, TP^S145A,Δ328 (Homo sapiens, UniProt P21731, S145A); assay: Intracellular calcium mobilization, HEK.TP^S145A,Δ328 cells
T2 construct: expressed in transfected cells
T2 sequence (P21731 1-328 S145A): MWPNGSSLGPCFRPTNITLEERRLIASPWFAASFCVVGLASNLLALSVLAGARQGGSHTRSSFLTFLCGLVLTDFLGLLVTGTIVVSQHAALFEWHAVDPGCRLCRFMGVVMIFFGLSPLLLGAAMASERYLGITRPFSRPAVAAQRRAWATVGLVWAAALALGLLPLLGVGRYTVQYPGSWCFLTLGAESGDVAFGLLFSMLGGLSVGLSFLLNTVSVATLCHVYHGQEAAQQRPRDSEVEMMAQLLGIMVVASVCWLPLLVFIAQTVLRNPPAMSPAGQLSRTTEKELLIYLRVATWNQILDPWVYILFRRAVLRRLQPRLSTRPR
Experimental: as §1, §2, §3

[3] = target: T3, TPα^S331,T337A (Homo sapiens, UniProt P21731, S331A/T337A); assay: Intracellular calcium mobilization, HEK.TPα^S331,T337A cells; conditions: for Δ[Ca2+]i, U46619-induced: HEK.TPα^S331,T337A
T3 construct: expressed in transfected cells
T3 sequence (P21731 1-343 S331A/T337A): T1 sequence (P21731 1-343 S340A) with S331A, T337A, A340S
Experimental: as §1, with “GRK2/βARK1[39]. Approximately 48 h post-transfection, cells were harvested by scraping, washed twice in ice-cold PBS and resuspended in HBSSHB (modified Ca^2+/Mg^2+-free Hank's buffered salt solution, containing […], pH 7.67, 0.1% bovine serum albumin (BSA)) buffer at 10^7 cells/ml and incubated in the dark with 5 μM FURA2/AM for 45 min at 37 °C.” for “GRK2/βARK1[39].”
Cells were stimulated with the TP agonist U46619 (1 μM) and changes in [Ca^2+]i mobilization were monitored as a function of time. To assess agonist-mediated homologous desensitization, cells (0.825 × 10^6 cells/ml; 2 ml per assay) were stimulated with 1 μM U46619 (Primary stimulation) or, as a control, with the vehicle for 4 min; thereafter, cells were collected by centrifugation (900×g, 5 min); were washed twice in 2 ml HBSSHB, 1 mM CaCl2; and finally resuspended in 2 ml HBSSHB,1 mM CaCl2 and were left to recover over various time intervals (ranging from 0 to 60 min); thereafter, cells re-stimulated with 1 μM U46619 (Secondary stimulation) and changes in [Ca^2+]i mobilization were monitored as a function of time. […]

[4] = secondary 1 μM U46619 at 15 min

- Δ[Ca2+]i, U46619-induced ([1]; primary 1 μM U46619 4 min): 180 ± 6.1 nM
- Δ[Ca2+]i, U46619-induced [1, 4]: 0 nM
- Δ[Ca2+]i, U46619-induced ([2]; primary 1 μM U46619 4 min): 174 ± 7.7 nM
- Δ[Ca2+]i, U46619-induced [2, 4]: 170 ± 9.9 nM
- Δ[Ca2+]i, U46619-induced ([3]; primary 1 μM U46619 4 min): 181 ± 6.5 nM
- Δ[Ca2+]i, U46619-induced [3, 4]: 60 ± 7.1 nM
- secondary U46619 [Ca2+]i response relative to primary response ([3]; TPα^S331,T337A): 33%
SMILES: CCCCC[C@H](O)/C=C/[C@@H]1[C@@H](C/C=C\CCCC(=O)O)[C@H]2CO[C@@H]1C2 [U46619]

Source: PMC2680961, “Homologous desensitization of signalling by the alpha (α) isoform of the human thromboxane A2 receptor: A specific role for nitric oxide signalling” (Biochimica et Biophysica Acta, 2007)
